Test results: article PMC10129394, “PK1 from Drosophila obscurin is an inactive pseudokinase with scaffolding properties” (Open Biology, 2023)

Assays:
dmObsc-PK1 [1] = molecular target: T1, dmObsc-PK1 (Drosophila melanogaster, UniProt A8DYP0); test: X-ray crystallography, […] Å; settings: co-crystallized with 3 mM ATP and 1 mM MgCl2, ADP found in density; no cation observed; pH 9.5; ATP-binding pocket
T1 construct: gene Obsc; pseudokinase domain PK1 plus 40 C-terminal residues (3186-3480); N-terminal His6-3C tag (pOPINF), cleaved with 3C protease; E. coli Rosetta
T1 sequence (A8DYP0 3186-3480): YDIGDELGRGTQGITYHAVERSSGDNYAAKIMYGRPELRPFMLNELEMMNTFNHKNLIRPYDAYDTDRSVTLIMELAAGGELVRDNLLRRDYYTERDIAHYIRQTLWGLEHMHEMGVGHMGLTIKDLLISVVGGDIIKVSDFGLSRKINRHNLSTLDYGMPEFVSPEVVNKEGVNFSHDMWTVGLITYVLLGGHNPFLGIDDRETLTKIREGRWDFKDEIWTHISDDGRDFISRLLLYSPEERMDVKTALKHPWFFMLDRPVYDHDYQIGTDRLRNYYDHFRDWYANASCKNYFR

dmObsc-PK1 [2] = molecular target: T1, dmObsc-PK1; test: isothermal titration calorimetry; type: binding

| SMILES | X-ray crystallography, 1.90 Å (dmObsc-PK1 [1]) | Kd (dmObsc-PK1 [2]) |
| --- | --- | --- |
| Nc1ncnc2c1ncn2[C@@H]1O[C@H](COP(=O)(O)OP(=O)(O)O)[C@@H](O)[C@H]1O [ADP] | electron density maps revealed ADP bound to the kinase |  |
| Nc1ncnc2c1ncn2[C@@H]1O[C@H](COP(=O)(O)OP(=O)(O)OP(=O)(O)O)[C@@H](O)[C@H]1O [ATP] |  | 61.8 ± 4.2 µM |
